Assays:
[1] = target: Serine/threonine-protein kinase 10 (Homo sapiens) (UniProt O94804); experiment: Inhibition of LOK Lys1 labeling site in human A-375 cells at 5 uM by KiNativ Profiling analysis relative to control; type: cell-based
[2] = target: T1, Serine/threonine-protein kinase B-raf (Homo sapiens, UniProt P15056); experiment: Inhibition of BRAF (unknown origin) at 10 uM by Ambit Kinomescan binding assay relative to control
[3] = Inhibition of MLK1/4 K2 labeling site in human Huh-7 cells at 1 uM by KiNativ Profiling analysis relative to control; settings: condition cancer
[4] = target: Mitogen-activated protein kinase kinase kinase 20 (Homo sapiens, UniProt Q9NYL2); experiment: Inhibition of ZAK K1 labeling site in human Huh-7 cells at 10 uM by KiNativ Profiling analysis relative to control; type: cell-based
[5] = target: Focal adhesion kinase 1 (Homo sapiens) (UniProt Q05397); experiment: Inhibition of FAK (unknown origin) at 10 uM by Ambit Kinomescan binding assay relative to control
[6] = tested on: Tyrosine-protein kinase ABL1 (Homo sapiens), P00519 [Y253F]; experiment: Inhibition of ABL1 Y253F mutant (unknown origin) at 10 uM by Ambit Kinomescan binding assay relative to control
[7] = target: Dual specificity mitogen-activated protein kinase kinase 1 (Homo sapiens) (UniProt Q02750); experiment: Inhibition of MAP2K1 Lys1 labeling site in human A-375 cells at 0.05 uM by KiNativ Profiling analysis relative to control; type: cell-based
[8] = target: Calcium/calmodulin-dependent protein kinase type II subunit delta (Homo sapiens) (UniProt Q13557); experiment: Inhibition of CAMK2d K1 labeling site in human Huh-7 cells at 10 uM by KiNativ Profiling analysis relative to control; type: cell-based
[9] = target: DNA-PK/Ku70/Ku85 (Homo sapiens) (UniProt P78527+P12956+P13010); experiment: Inhibition of DNAPK ATP labeling site harbouring KGGSWIQEINVAEKNWYPR in human Huh-7 cells at 1 uM by KiNativ Profiling analysis relative to control; type: cell-based
[10] = target: Calcium/calmodulin-dependent protein kinase type II subunit gamma (Homo sapiens) (UniProt Q13555); experiment: Inhibition of CaMK2g Lys1 labeling site harbouring TSTQEYAAKIINTK in human Huh-7 cells at 1 uM by KiNativ Profiling analysis relative to control; type: cell-based
[11] = target: T2, PAN2-PAN3 deadenylation complex subunit PAN3 (Homo sapiens) (UniProt Q58A45); experiment: Inhibition of PAN3 Protein Kinase Domain labeling site in human Huh-7 cell lysate at 1 uM by KiNativ Profiling analysis relative to control; type: subcellular
T2 sequence (whole entry): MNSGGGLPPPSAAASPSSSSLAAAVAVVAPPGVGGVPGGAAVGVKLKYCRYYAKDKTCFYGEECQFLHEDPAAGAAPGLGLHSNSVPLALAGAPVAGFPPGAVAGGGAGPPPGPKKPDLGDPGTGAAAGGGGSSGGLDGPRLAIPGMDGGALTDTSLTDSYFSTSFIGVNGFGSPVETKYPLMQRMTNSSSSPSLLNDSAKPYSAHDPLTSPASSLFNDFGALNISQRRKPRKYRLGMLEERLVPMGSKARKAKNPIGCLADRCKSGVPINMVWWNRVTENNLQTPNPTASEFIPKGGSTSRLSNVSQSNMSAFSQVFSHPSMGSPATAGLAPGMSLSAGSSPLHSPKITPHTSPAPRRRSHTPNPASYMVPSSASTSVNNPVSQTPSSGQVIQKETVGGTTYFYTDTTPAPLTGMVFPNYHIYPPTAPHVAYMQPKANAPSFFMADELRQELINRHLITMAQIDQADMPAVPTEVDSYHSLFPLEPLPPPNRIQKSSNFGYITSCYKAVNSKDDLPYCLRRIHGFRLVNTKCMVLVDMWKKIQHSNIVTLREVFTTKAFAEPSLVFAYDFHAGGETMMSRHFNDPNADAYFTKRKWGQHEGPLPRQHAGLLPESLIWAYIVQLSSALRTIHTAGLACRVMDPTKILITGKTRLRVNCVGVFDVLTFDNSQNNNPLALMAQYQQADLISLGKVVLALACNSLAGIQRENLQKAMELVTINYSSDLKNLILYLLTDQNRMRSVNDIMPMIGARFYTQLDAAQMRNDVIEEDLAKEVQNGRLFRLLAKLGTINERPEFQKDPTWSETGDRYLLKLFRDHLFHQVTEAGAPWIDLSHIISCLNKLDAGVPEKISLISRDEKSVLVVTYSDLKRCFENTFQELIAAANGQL

[12] = target: T3, Mitogen-activated protein kinase 13 (Homo sapiens) (UniProt O15264); experiment: Inhibition of p38delta Lys2 labeling site in human Huh-7 cells at 1 uM by KiNativ Profiling analysis relative to control; type: cell-based
T3 sequence (whole entry): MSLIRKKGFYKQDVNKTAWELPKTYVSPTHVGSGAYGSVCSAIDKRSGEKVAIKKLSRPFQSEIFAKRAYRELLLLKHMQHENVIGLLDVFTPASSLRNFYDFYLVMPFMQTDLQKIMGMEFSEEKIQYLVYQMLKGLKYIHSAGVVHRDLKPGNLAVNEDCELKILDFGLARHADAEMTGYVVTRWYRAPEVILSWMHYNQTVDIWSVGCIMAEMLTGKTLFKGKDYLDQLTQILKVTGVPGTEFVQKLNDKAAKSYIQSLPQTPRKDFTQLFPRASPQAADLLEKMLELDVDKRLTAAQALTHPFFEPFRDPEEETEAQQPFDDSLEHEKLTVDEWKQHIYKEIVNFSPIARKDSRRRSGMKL

[13] = target: T1, Serine/threonine-protein kinase B-raf; experiment: Inhibition of BRAF (unknown origin) at 1 uM by Ambit Kinomescan binding assay relative to control
[14] = target: Phosphatidylinositol 4,5-bisphosphate 3-kinase catalytic subunit beta isoform (Homo sapiens) (UniProt P42338); experiment: Inhibition of PIK3CB ATP labeling site in human A-375 cells at 5 uM by KiNativ Profiling analysis relative to control; type: cell-based
[15] = target: Phosphatidylinositol 4-phosphate 5-kinase type-1 gamma (Homo sapiens) (UniProt O60331); experiment: Inhibition of PIP5K1C (unknown origin) at 1 uM by Ambit Kinomescan binding assay relative to control; values are per cent of control
[16] = target: STE20-like serine/threonine-protein kinase (Homo sapiens) (UniProt Q9H2G2); experiment: Inhibition of SLK Lys2 labeling site harbouring DLKAGNILFTLDGDIK in human A-375 cells at 5 uM by KiNativ Profiling analysis relative to control; type: cell-based
[17] = target: Serine/threonine-protein kinase 32C (Homo sapiens) (UniProt Q86UX6); experiment: Inhibition of YANK3 Lys2 labeling site in human A-375 cells at 0.5 uM by KiNativ Profiling analysis relative to control; type: cell-based
[18] = target: Phosphatidylinositol 4,5-bisphosphate 3-kinase catalytic subunit gamma isoform (Homo sapiens) (UniProt P48736); experiment: Inhibition of PIK3CG (unknown origin) at 1 uM by Ambit Kinomescan binding assay relative to control; values are per cent of control
Chain of Phosphatidylinositol 4,5-bisphosphate 3-kinase catalytic subunit gamma isoform (Homo sapiens) (P48736 whole entry, looked up, canonical isoform): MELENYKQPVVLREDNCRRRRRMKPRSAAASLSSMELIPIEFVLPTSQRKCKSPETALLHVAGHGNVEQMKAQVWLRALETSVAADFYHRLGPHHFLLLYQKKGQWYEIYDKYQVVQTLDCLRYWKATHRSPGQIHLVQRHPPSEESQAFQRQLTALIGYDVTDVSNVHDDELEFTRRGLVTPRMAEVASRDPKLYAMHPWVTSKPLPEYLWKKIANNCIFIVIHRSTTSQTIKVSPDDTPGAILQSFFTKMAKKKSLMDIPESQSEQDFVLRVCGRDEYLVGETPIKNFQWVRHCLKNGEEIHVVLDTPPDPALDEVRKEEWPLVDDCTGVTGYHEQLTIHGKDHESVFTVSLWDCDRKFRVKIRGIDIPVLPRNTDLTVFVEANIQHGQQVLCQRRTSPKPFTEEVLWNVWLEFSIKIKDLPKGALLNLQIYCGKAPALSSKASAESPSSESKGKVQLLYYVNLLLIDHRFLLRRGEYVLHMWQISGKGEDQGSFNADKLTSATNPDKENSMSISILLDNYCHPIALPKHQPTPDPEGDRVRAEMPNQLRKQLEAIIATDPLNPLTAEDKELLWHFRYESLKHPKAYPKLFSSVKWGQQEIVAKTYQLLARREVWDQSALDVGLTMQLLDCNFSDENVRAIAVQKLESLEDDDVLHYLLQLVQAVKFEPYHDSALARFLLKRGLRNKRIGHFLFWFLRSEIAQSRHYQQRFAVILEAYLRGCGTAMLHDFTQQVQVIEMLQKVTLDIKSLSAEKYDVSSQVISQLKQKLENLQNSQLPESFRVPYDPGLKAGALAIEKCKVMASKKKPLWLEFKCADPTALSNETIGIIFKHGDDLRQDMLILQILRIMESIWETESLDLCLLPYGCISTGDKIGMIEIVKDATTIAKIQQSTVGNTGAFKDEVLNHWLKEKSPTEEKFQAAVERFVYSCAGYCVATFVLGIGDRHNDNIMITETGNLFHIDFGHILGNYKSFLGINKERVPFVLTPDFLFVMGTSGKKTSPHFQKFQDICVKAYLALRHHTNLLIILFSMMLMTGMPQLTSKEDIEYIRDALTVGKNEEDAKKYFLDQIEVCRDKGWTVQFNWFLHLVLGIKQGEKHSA

T1 sequence (P15056 whole entry): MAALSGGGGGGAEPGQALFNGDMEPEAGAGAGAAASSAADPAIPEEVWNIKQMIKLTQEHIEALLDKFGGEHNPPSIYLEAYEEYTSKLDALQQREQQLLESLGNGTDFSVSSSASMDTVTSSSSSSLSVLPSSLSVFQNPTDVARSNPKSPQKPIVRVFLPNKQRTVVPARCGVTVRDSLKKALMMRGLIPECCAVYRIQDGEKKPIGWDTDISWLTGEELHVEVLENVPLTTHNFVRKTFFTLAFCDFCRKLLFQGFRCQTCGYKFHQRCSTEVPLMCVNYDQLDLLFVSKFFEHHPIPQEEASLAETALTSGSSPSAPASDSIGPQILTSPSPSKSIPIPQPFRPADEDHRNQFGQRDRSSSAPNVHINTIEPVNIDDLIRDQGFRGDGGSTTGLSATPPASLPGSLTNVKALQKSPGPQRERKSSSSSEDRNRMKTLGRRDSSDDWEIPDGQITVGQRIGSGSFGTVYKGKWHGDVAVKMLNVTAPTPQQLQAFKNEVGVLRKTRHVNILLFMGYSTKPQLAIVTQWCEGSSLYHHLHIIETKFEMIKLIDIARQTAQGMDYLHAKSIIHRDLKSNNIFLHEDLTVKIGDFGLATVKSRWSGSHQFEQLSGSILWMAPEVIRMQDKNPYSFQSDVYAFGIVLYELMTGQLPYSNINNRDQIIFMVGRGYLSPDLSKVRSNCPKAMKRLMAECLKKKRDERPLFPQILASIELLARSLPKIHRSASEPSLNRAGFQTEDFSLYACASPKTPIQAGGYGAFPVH
Chain of Dual specificity mitogen-activated protein kinase kinase 1 (Homo sapiens) (Q02750 whole entry): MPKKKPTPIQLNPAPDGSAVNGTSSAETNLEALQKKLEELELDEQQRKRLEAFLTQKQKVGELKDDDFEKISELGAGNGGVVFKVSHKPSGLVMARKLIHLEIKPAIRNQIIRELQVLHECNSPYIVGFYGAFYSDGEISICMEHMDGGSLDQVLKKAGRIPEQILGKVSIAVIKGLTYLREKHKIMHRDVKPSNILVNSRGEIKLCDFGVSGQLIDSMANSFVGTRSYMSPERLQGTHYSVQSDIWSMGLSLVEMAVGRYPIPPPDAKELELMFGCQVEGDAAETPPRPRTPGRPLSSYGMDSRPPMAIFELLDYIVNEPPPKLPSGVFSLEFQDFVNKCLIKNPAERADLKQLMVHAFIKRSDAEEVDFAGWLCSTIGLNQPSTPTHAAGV
Chain of Phosphatidylinositol 4,5-bisphosphate 3-kinase catalytic subunit beta isoform (Homo sapiens) (P42338 whole entry, looked up, canonical isoform): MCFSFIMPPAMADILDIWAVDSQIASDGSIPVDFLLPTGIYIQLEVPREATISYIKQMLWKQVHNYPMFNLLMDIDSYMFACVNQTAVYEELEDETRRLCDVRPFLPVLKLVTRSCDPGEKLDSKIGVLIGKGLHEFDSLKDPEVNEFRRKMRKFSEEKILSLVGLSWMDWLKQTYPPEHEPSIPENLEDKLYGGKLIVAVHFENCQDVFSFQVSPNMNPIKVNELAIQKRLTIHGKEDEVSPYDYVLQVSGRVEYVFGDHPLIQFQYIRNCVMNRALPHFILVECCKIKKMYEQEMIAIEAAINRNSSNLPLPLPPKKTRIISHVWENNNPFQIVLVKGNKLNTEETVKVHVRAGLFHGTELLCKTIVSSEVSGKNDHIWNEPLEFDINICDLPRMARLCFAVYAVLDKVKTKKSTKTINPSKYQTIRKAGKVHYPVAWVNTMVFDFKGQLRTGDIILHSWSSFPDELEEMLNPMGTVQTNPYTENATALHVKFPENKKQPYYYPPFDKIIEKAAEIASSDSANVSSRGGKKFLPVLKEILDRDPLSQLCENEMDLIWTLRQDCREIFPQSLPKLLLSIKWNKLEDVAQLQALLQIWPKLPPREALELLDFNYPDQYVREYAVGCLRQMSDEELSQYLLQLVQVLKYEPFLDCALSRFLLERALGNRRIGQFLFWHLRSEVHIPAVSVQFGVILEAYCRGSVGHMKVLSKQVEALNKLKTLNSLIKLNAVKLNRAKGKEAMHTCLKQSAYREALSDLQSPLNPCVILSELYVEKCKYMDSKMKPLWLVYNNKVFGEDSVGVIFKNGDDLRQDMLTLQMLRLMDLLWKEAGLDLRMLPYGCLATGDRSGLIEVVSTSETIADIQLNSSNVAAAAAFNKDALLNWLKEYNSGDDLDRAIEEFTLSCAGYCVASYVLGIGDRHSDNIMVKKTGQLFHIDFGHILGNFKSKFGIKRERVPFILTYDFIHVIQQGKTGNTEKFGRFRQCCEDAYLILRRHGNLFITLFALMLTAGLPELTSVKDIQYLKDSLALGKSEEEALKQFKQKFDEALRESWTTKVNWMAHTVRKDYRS
Chain of STE20-like serine/threonine-protein kinase (Homo sapiens) (Q9H2G2 whole entry, looked up): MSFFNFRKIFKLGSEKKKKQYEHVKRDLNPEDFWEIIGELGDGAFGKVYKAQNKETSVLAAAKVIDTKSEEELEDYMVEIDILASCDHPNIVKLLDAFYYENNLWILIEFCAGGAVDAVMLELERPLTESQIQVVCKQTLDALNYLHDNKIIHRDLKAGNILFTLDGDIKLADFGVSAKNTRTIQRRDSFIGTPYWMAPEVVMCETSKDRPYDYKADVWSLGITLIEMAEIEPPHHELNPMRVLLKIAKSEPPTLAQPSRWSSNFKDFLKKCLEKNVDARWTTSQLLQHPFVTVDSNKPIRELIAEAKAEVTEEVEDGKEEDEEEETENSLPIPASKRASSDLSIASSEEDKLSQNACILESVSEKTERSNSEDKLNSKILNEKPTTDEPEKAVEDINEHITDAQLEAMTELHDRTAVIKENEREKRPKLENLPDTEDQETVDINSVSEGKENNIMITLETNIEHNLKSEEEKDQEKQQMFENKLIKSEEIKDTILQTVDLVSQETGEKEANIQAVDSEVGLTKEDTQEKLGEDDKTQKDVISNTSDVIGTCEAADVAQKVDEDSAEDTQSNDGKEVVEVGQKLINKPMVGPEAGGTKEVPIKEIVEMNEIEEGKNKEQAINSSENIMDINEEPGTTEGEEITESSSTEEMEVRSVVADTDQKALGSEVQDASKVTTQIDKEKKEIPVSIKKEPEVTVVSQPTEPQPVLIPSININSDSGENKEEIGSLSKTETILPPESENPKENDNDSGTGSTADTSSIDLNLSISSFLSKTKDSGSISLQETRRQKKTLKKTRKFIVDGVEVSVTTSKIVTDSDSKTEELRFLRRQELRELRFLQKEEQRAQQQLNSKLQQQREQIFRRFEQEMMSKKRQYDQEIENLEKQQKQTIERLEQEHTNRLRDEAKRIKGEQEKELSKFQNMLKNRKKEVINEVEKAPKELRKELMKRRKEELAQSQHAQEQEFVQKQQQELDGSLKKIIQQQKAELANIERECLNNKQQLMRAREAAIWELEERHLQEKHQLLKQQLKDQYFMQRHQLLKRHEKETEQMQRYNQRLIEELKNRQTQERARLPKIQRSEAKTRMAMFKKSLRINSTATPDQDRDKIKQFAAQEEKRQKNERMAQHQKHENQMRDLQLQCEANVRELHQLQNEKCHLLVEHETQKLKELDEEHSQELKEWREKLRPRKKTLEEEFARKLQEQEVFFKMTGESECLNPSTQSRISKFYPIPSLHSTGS
Chain of Calcium/calmodulin-dependent protein kinase type II subunit delta (Homo sapiens) (Q13557 whole entry): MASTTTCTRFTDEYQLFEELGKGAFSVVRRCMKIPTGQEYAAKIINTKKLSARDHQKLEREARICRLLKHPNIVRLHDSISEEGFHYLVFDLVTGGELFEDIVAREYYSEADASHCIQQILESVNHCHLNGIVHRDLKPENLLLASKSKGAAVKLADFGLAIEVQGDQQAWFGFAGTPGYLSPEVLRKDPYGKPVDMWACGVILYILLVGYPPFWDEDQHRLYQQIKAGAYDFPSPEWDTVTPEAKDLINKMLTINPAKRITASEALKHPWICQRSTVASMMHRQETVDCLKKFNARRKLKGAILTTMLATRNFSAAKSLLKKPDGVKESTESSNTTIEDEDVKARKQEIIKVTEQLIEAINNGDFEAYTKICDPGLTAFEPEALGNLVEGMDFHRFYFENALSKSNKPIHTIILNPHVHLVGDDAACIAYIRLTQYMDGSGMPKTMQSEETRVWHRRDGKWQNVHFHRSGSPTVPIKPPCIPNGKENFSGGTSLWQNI

## CCN1CCN(Cc2ccc(NC(=O)c3ccc(C)c(Oc4ccnc5[nH]ccc45)c3)cc2C(F)(F)F)CC1
[1]
  inhibition: 82.3%
[2]
  inhibition: 9.1%
[3]
  inhibition at 1 µM: 1.5%
[4]
  inhibition: 83.4%
[5]
  inhibition: 23%
[6]
  inhibition: 1.1%
[7]
  inhibition: 2.9%
[8]
  inhibition: 0.1%

## CNc1cc(Oc2cc(C(=O)Nc3cc(N4CCN(C)CC4)cc(C(F)(F)F)c3)ccc2C)ncn1
[9]
  inhibition: 68.1%
[10]
  inhibition: 27.1%
[11]
  inhibition: -2.9%
[12]
  inhibition: 13%

## CCN1CCN(Cc2ccc(NC(=O)c3ccc(C)c(/C=C/c4cnc5[nH]ccc5c4OC)c3)cc2C(F)(F)F)CC1
[13]
  inhibition: 17%
[14]
  inhibition: 26.6%
[15]
  percent of control: 100%
[16]
  inhibition: 12.2%
[17]
  inhibition: 11.5%
[18]
  residual activity: 100%
